Measured values reported in BindingDB's records for doi:10.7270/Q2TX3CTT (Broad Institute, 2010).
pEC50: −log10 of the molar value.

These compounds were tested against Glycogen synthase kinase-3 beta (Homo sapiens, UniProt P49841) (assay: GSK3beta kinase inhibitor potency, dose response, biochemical, luminescence, cell-free homogeneous, retest (AID 434954)).
Chain of Glycogen synthase kinase-3 beta (P49841 whole entry): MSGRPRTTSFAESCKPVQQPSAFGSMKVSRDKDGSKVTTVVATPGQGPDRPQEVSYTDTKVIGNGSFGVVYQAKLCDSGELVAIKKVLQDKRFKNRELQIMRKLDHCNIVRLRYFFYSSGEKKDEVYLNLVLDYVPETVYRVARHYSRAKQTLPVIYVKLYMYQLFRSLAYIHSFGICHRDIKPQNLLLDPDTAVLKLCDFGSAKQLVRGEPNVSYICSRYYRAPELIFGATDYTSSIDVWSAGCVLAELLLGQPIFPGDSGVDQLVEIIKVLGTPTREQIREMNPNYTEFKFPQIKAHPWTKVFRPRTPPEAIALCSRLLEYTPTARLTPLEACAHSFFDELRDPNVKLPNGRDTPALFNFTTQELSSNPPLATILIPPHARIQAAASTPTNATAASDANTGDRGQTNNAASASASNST

SMILES | pEC50
COCCN1C(=O)N[C@@H](c2cccc(C(F)(F)F)c2)[C@H](C(C)=O)[C@H]1C [(4R,5S,6R)-5-acetyl-1-(2-methoxyethyl)-6-methyl-4-[3-(trifluoromethyl)phenyl]-1,3-diazinan-2-one] | < 3.52
Cc1cccc(Nc2nc(N)c([N+](=O)[O-])c(NCc3ccco3)n2)c1 [SMR000220105] | 5.08
CC(CC(=O)Nc1ccc2c(c1)OCO2)=NNC(=O)c1ccc(N)cc1 [MLS001042207] | < 3.52
O=C(CCS(=O)(=O)c1ccccc1)Nc1ncc([N+](=O)[O-])s1 [SMR000605858] | < 3.52
CSc1nc(NCC(C)C)c2c3c(sc2n1)CN(C)CC3 [SMR000148856] | < 3.52
CC(Cc1c[nH]c2ccccc12)NC(=O)OCCCl (stereo not drawn) | < 3.52
Cc1ccc(C(=O)NN=C2CCCc3ccccc32)c(C)c1 [MLS001005817] | < 3.52
CCOC(=O)c1ccc2c(c1)[n+](CC)c(/C=C/N(C)c1ccccc1)n2CC [MLS000561766] | < 3.52
CCSc1nc(N)c2c3c(sc2n1)CN(C)CC3 [MLS000082600] | < 3.52
COCCn1c(SCC(=O)Nc2ncc(Cl)c(C)c2Cl)nc2ccccc21 [MLS000097567] | < 3.52
COc1cccc(C(=O)C(C#N)=C(SC)SC)c1 [MLS000859112] | < 3.52
COc1ccc(C2C3=C(CC(C)(C)CC3=O)N=C(C)C2C#N)cc1 (stereo not drawn) [4-(4-methoxyphenyl)-2,7,7-trimethyl-5-oxidanylidene-1,4,6,8-tetrahydroquinoline-3-carbonitrile] | < 3.52
CC(=O)Oc1cccc(N2C(=O)c3ccc(C(=O)Nc4cccnc4)cc3C2=O)c1 [SMR000306801] | < 3.52
COc1ccc(C(=O)c2sc(Nc3ccccc3)nc2N)cc1OC [MLS001202046] | 6.45
Cc1ccccc1NC(=O)CN1C(=O)c2ccccc2C1=O [2-[1,3-bis(oxidanylidene)isoindol-2-yl]-N-(2-methylphenyl)ethanamide] | < 3.52
O=C(Nc1cccc(-c2cnc3ccccc3n2)c1)c1ccccc1 [N-[3-(2-quinoxalinyl)phenyl]benzamide] | < 3.52
CCOC(=O)C1C(C)=Nc2ncnn2C1c1cccnc1 (stereo not drawn) | < 3.52
O=C(COc1ccccc1[N+](=O)[O-])NN=Cc1ccccn1 [(2-Nitro-phenoxy)-acetic acid [1-pyridin-2-yl-meth-(E)-ylidene]-hydrazide] | < 3.52
COc1ccc(-c2nn(-c3ccccc3)cc2C(=O)O)cc1 [SMR000015534] | < 3.52
COc1ccc(C(C)N2CC34C=CC(O3)C(C(=O)O)C4C2=O)cc1 (stereo not drawn) [3-[1-(4-Methoxy-phenyl)-ethyl]-4-oxo-10-oxa-3-aza-tricyclo[5.2.1.0*1,5*]dec-8-ene-6-carboxylic acid] | < 3.52
C[C@@H]1O[C@@H](Oc2c(-c3cc(O)c(O)c(O)c3)oc3cc(O)cc(=O)c-3c2O)[C@H](O)[C@H](O)[C@H]1O [3-[(2S,3R,4R,5R,6S)-6-methyl-3,4,5-tris(oxidanyl)oxan-2-yl]oxy-5,7-bis(oxidanyl)-2-[3,4,5-tris(oxidanyl)phenyl]chromen-4-one] | < 3.52
c1cncc(-c2nc(NCCCn3ccnc3)c3ccccc3n2)c1 [SMR000384722] | 4.51
N#Cc1c(N)nc(-c2ccccc2)nc1-c1ccccc1 [4-amino-2,6-diphenyl-5-pyrimidinecarbonitrile] | < 3.52
Cc1cnc(C(=O)OCC(=O)N2c3ccccc3CC2C)cn1 (stereo not drawn) [[2-(2-methyl-2,3-dihydroindol-1-yl)-2-oxoethyl] 5-methylpyrazine-2-carboxylate] | < 3.52
O=C(COc1cccc2cccnc12)NN=Cc1ccc(O)cc1 [N'-[(4-oxo-1-cyclohexa-2,5-dienylidene)methyl]-2-(8-quinolinyloxy)acetohydrazide] | 5.03

SMILES | pEC50
C=c1cc2[nH]c(=O)c(=Cc3ccc(OCC)c(OC)c3)c(=N)n2o1 [SMR000309341] | < 3.52
CCc1nnc(NC(=O)c2ccc3c(=O)n4c(nc3c2)CCCCC4)s1 [MLS001007070] | < 3.52
COc1ccc(-c2ccc3c(N)c(C(=O)c4cccc(OC)c4)sc3n2)cc1 [SMR000160395] | < 3.52
Cc1n[nH]c2c1[C@@H](c1ccccc1[N+](=O)[O-])C(C#N)C(=N)O2 (stereo partly drawn) [(4S)-6-azanyl-3-methyl-4-(2-nitrophenyl)-2,4-dihydropyrano[2,3-c]pyrazole-5-carbonitrile] | 5.02
COc1cc(/C=C2\Oc3cc(O)ccc3C2=O)ccc1O | 4.91
CCOC(=O)C1C(C)=Nc2ncnn2C1c1ccc(N(C)C)cc1 (stereo not drawn) [ethyl 7-[4-(dimethylamino)phenyl]-5-methyl-1,7-dihydro-[1,2,4]triazolo[1,5-a]pyrimidine-6-carboxylate] | < 3.52
CCCCC(CC)C(=O)Nc1ncc([N+](=O)[O-])s1 (stereo not drawn) [2-ethyl-N-(5-nitro-2-thiazolyl)hexanamide] | 4.19
COc1ccc(OC)c(NCc2nnc(-c3ccccc3)o2)c1 [MLS001208999] | < 3.52
Cc1ccc(NC(=O)c2ccc(C)c(S(=O)(=O)N3CCCCC3)c2)nc1 [MLS001078236] | < 3.52
CCN1CCc2c(C#N)c(N3CCCCC3)nc(N3CCOCC3)c2C1 [MLS000071254] | 4.79
CCc1cc(C(=O)c2ccc(OC)cc2)c(NC(=O)CN2CCN(C)CC2)s1 [N-[5-ethyl-3-(4-methoxyphenyl)carbonyl-thiophen-2-yl]-2-(4-methylpiperazin-1-yl)ethanamide] | < 3.52
Cc1cc2c(=O)oc(-c3ccc(F)cc3)nc2s1 | < 3.52
O=C(O)COc1ccc2oc3ccccc3c2c1 [SMR000243853] | < 3.52
Cc1csc2c(=O)n(CCO)c(=O)[nH]c12 [MLS000861875] | < 3.52
CCCC1=Nc2ncnn2C(c2sccc2C)C1C(=O)OCC (stereo not drawn) [SMR000440057] | < 3.52
CCN(CC)CCNc1nc(SC)nc2sc3c(c12)CCN(C)C3 | < 3.52
COc1ccc2nc(C)cc(N3CCOCC3)c2c1 [4-(6-methoxy-2-methyl-4-quinolinyl)morpholine] | < 3.52
Cc1ccc(Nc2nc(N)c([N+](=O)[O-])c(NCc3ccco3)n2)cc1 | 5.04
CCc1cc(=O)oc2cc(C)cc(O)c12 [4-ethyl-5-hydroxy-7-methyl-1-benzopyran-2-one] | < 3.52
COc1ccc2occ(C(=O)c3ccc(N=C(C)N(C)C)cc3)c2c1 [SMR000104711] | 4.66
CCOC(=O)/C(C#N)=C/c1cn(CCC(=O)O)nc1-c1cccc(Cl)c1 [3-[3-(3-chlorophenyl)-4-[(E)-2-cyano-3-ethoxy-3-oxidanylidene-prop-1-enyl]pyrazol-1-yl]propanoic acid] | < 3.52
Cc1ccc(Sc2ccc(CN=O)cc2[N+](=O)[O-])cc1 [4-[(4-methylphenyl)thio]-3-nitrobenzaldehyde oxime] | 4.29
COc1ccc(NC(=S)Nc2cccc(Cl)c2Cl)cc1OC | < 3.52
CC(C)N1C(=O)C(=CNCc2cccnc2)C(=O)NC1=S [1-Isopropyl-5-[1-[(pyridin-3-ylmethyl)-amino]-meth-(E)-ylidene]-2-thioxo-dihydro-pyrimidine-4,6-dione] | < 3.52
COc1ccc(C=c2sc(=CC(=O)C(C)(C)C)[nH]c2=O)cc1O [2-(3,3-dimethyl-2-oxidanylidene-butylidene)-5-[(4-methoxy-3-oxidanyl-phenyl)methylidene]-1,3-thiazolidin-4-one] | 5.14

SMILES | pEC50
CN(C)CCCNc1nc(N)c([N+](=O)[O-])c(NC2CCCCC2)n1 [MLS001213448] | 5.50
COCCCNc1nc(N)c([N+](=O)[O-])c(NCC2CCCO2)n1 (stereo not drawn) | 5.41
CCOc1ccccc1NC(=O)CSc1nnc(C2CC2)n1CC [2-[(5-cyclopropyl-4-ethyl-1,2,4-triazol-3-yl)thio]-N-(2-ethoxyphenyl)acetamide] | < 3.52
C=CCOc1ccc(CN=Nc2ccccn2)cc1OC [N-[(3-methoxy-4-prop-2-enoxyphenyl)methylideneamino]pyridin-2-amine] | < 3.52
CS(=O)(=O)c1ccccc1-c1nnc(NC(=O)c2ccc3ncsc3c2)o1 | < 3.52
Fc1ccc(CNc2nc(-c3cccnc3)nc3ccccc23)cc1 [N-[(4-fluorophenyl)methyl]-2-(3-pyridinyl)-4-quinazolinamine] | < 3.52
CN1CCN(c2ccccc2NC(=O)c2ccc(Br)o2)CC1 [5-bromanyl-N-[2-(4-methylpiperazin-1-yl)phenyl]furan-2-carboxamide] | 4.72
O=c1oc(-c2cccs2)nc2sc3c(c12)CCC3 [MLS000107331] | < 3.52
C=CCn1cc(/C=C/c2cc[n+](C)cc2)c2ccccc21 [3-[(E)-2-(1-methylpyridin-1-ium-4-yl)ethenyl]-1-prop-2-enyl-indole;iodide] | < 3.52
CC(=O)N1CCc2c(sc(NC(=O)C3COc4ccccc4O3)c2C(N)=O)C1 (stereo not drawn) [2-(2,3-dihydro-1,4-benzodioxin-3-ylcarbonylamino)-6-ethanoyl-5,7-dihydro-4H-thieno[2,3-c]pyridine-3-carboxamide] | 5.08
O=C1N=C(NCc2ccccc2)SC1=Cc1ccccc1 [MLS000589841] | < 3.52
CCc1c(C(=O)Nc2ccccc2C(N)=O)csc1C [SMR000679541] | < 3.52
N#Cc1c(-c2cccs2)nc(SCc2ccc(Cl)cc2)[nH]c1=O [MLS000705749] | < 3.52
CN(C)/C=C/C(=O)c1cnc(-c2cccc(Cl)c2)s1 [MLS000706958] | < 3.52
COc1cccc(CNS(=O)(=O)c2cc(CN3C(=O)c4cccnc4C3=O)ccc2OC)c1 [SMR000630004] | < 3.52
C=CCNC(=S)NN=Cc1cn(-c2ccccc2)nc1-c1ccc(OC)cc1 [SMR000212115] | 4.37
COc1ccc(-c2nn(-c3ccccc3)cc2CN=Nc2ccc(Cl)c(C(=O)O)c2)cc1OC [SMR000371971] | < 3.52
COc1ccc(C(=O)OCCc2ccc(O)cc2)cc1 | < 3.52
CSc1nc(-c2cccs2)c(C#N)c(=O)[nH]1 [MLS000849828] | < 3.52
CCOc1cc(C)cc2oc(=O)cc(-c3ccccc3)c12 [SMR000116517] | < 3.52
O=C(Cn1c2ccccc2c(=O)c2ccccc21)Nc1ccccc1F [N-(2-fluorophenyl)-2-(9-oxoacridin-10-yl)acetamide] | < 3.52
Cc1ccc2nc3c(cc2c1)c(NC(=O)C1CCCO1)nn3CC(C)C (stereo not drawn) [SMR000148636] | < 3.52
O=C(CC1NCCNC1=O)Nc1cc(Cl)cc(Cl)c1 (stereo not drawn) [N-(3,5-dichlorophenyl)-2-(3-oxopiperazin-2-yl)acetamide] | < 3.52
